Test results published in article PMC5493200 (ACS infectious diseases, 2016).

Assays:
[1] = test system: M. tuberculosis H37Rv; test: microbe, parasite or virus in culture; assay type: cell-based, Mycobacterium tuberculosis; conditions: Tables 1-4 and text; […]
[2] = test system: M. tuberculosis H37Rv Rv1258c knockout (KO); test: microbe, parasite or virus in culture; assay type: cell-based; conditions: Tables 1-4 and text; 7 days, 7H9 broth
[3] = target: Purified 70S M. smegmatis bacterial ribosomes (Mycolicibacterium smegmatis, UniProt A0QSG6); test: Ribosomal translation inhibition; assay type: biochemical; conditions: for Ribosome IC50: inhibits luciferase activity by 50%
Sequence of Purified 70S M. smegmatis bacterial ribosomes (A0QSG6 whole entry): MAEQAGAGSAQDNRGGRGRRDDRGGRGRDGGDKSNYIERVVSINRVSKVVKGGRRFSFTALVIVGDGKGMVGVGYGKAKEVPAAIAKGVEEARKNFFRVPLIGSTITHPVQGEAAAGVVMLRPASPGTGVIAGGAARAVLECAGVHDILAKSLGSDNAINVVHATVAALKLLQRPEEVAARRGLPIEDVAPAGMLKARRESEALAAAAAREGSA

[4] = test system: Rv1258c efflux pump; conditions: for Efflux Ratio: H37Rv MIC / Rv1258c KO MIC

CNC1C(O)C(NC)C2OC3(O)C(OC(C)C[C@H]3NC(=O)Cc3cccnc3)OC2C1O.Cl.Cl.Cl (stereo partly drawn) [Compound 3, 3′-Dihydro-3′-deoxy-3′(R)-(pyridin-3yl)acetylamino spectinomycin trihydrochloride]
H37Rv MIC [1]: 200 µg/mL
Rv1258c KO MIC [2]: 6.3 µg/mL

CNC1C(O)C(NC)C2OC3(O)C(OC(C)C[C@H]3NC(=O)Cc3ccncc3)OC2C1O.Cl.Cl.Cl (stereo partly drawn) [Compound 4, 3′-Dihydro-3′-deoxy-3′(R)-(pyridin-4yl)acetylamino spectinomycin trihydrochloride]
H37Rv MIC [1]: 200 µg/mL
Rv1258c KO MIC [2]: 12.5 µg/mL

Br.Br.Br.CNC1C(O)C(NC)C2OC3(O)C(NC(=O)Cc4ccccn4)CC(C)OC3OC2C1O [Compound 5, 3′-Dihydro-3′-deoxy-3′(S)-(pyridin-2-yl)acetylamino spectinomycin Trihydrobromide]
Rv1258c KO MIC [2]: >200 µg/mL
Ribosome IC50 [3]: 42.23 µg/mL

CNC1C(O)C(NC)C2OC3(O)C(OC(C)C[C@H]3NCCc3ccccc3)OC2C1O.Cl.Cl.Cl (stereo partly drawn) [Compound 6, 3′-Dihydro-3′-deoxy-4(R)-2-phenylethylamino spectinomycin trihydrochloride]
H37Rv MIC [1]: 200 µg/mL

CNC1C(O)C(NC)C2OC3(O)C(OC(C)C[C@H]3NC(=O)Oc3ccccc3)OC2C1O.Cl.Cl (stereo partly drawn) [Compound 7, 3′-Dihydro-3′-deoxy-3′(R)-phenyloxycarbonylamino spectinomycin dihydrochloride]
H37Rv MIC [1]: >200 µg/mL
Rv1258c KO MIC [2]: >200 µg/mL
Ribosome IC50 [3]: 16.62 µg/mL

Br.Br.Br.CNC1C(O)C(NC)C2OC3(O)C(OC(C)C[C@H]3NC(=O)Nc3ccccc3)OC2C1O (stereo partly drawn) [Compound 8, 3′-Dihydro-3′-deoxy-3′(R)-phenylaminocarbonylamino spectinomycin trihydrobromide]
Rv1258c KO MIC [2]: 25 µg/mL
Ribosome IC50 [3]: 3.77 µg/mL
Efflux Ratio [4]: >8

Br.Br.CNC1C(O)C(NC)C2OC3(O)C(NS(=O)(=O)Cc4ccccc4)CC(C)OC3OC2C1O [Compound 9, 3′-Dihydro-3′-deoxy-3′(R)-benzylsulfonylamino spectinomycin dihydrobromide]
H37Rv MIC [1]: >200 µg/mL
Rv1258c KO MIC [2]: 12.5 µg/mL
Ribosome IC50 [3]: 10.97 µg/mL
Efflux Ratio [4]: >16

CNC1C(O)C(NC)C2OC3(O)C(NC(=O)Nc4ccccn4)CC(C)OC3OC2C1O.Cl.Cl [Compound 10, 3′-Dihydro-3′-deoxy-3′(R)-(pyridin-2-yl)aminocarbonylamino spectinomycin dihydrochloride]
H37Rv MIC [1]: 12.5 µg/mL
Rv1258c KO MIC [2]: 3.1 µg/mL
Ribosome IC50 [3]: 2.24 µg/mL
Efflux Ratio [4]: 4

CNC1C(O)C(NC)C2OC3(O)C(NC(=O)c4ccccn4)CC(C)OC3OC2C1O.Cl.Cl.Cl [Compound 11, 3′-Dihydro-3′-deoxy-3′(R)-pyridin-2-carboxylicamino spectinomycin trihydrochloride]
Rv1258c KO MIC [2]: >200 µg/mL

Br.Br.Br.CNC1C(O)C(NC)C2OC3(O)C(NC(=O)CCc4ccccn4)CC(C)OC3OC2C1O [Compound 12, 3′-Dihydro-3′-deoxy-3′(R)-(pyridin-2-yl)propanoylamino spectinomycin trihydrobromide]
H37Rv MIC [1]: 50 µg/mL
Rv1258c KO MIC [2]: 6.3 µg/mL
Ribosome IC50 [3]: 3.80 µg/mL
Fold change of MIC between H37Rv and Rv1258c KO (efflux) [4]: 8 fold
Efflux Ratio [4]: 8

CN[C@@H]1[C@H](O)[C@H](NC)[C@H]2O[C@]3(O)[C@H](O[C@@H]2[C@H]1O)O[C@H](C)C[C@H]3NC(=O)Cc1ncccn1.Cl.Cl [Compound 13, 3′-Dihydro-3′-deoxy-3′(R)-(pyrimidin-2yl)acetylamino spectinomycin dihydrochloride]
Rv1258c KO MIC [2]: >200 µg/mL
IC50 ([3]; as printed in modeling section): 45.5 µM
Ribosome IC50 [3]: 45.50 µg/mL
Fold weaker binding than 1 ([3]; relative to 1): 39 fold

Br.Br.Br.CNC1C(O)C(NC)C2OC3(O)C(NC(=O)Cc4cccnn4)CC(C)OC3OC2C1O [Compound 14, 3′-Dihydro-3′-deoxy-3′(R)-(pyridazin-3-yl) acetylamino spectinomycin trihydrobromide]
Rv1258c KO MIC [2]: 12.5 µg/mL
Efflux Ratio [4]: 2

Br.Br.Br.CNC1C(O)C(NC)C2OC3(O)C(OC(C)C[C@H]3NC(=O)Cc3cnccn3)OC2C1O (stereo partly drawn) [Compound 15, 3′-Dihydro-3′-deoxy-3′(R)-(pyrazin-2-yl)acetylamino spectinomycin trihydrobromide]
Rv1258c KO MIC [2]: 25 µg/mL
Efflux Ratio [4]: 1

Br.Br.Br.CNC1C(O)C(NC)C2OC3(O)C(OC(C)C[C@H]3NC(=O)Cc3ccncn3)OC2C1O (stereo partly drawn) [Compound 16, 3′-Dihydro-3′-deoxy-3′(R)-(pyrimidin-4-yl)acetylamino spectinomycin trihydrobromide]
Rv1258c KO MIC [2]: 25 µg/mL
Efflux Ratio [4]: 0.5

Br.Br.Br.CNC1C(O)C(NC)C2OC3(O)C(NC(=O)Cc4csc(N)n4)CC(C)OC3OC2C1O [Compound 18, 3′-Dihydro-3′-deoxy-3′(R)-(2-aminothiazol-4-yl)acetylamino spectinomycin trihydrobromide]
Rv1258c KO MIC [2]: 6.3 µg/mL
Ribosome IC50 [3]: 0.62 µg/mL
Efflux Ratio [4]: 1

Br.Br.Br.CNC1C(O)C(NC)C2OC3(O)C(NC(=O)Cc4nccs4)CC(C)OC3OC2C1O [Compound 19, 3′-Dihydro-3′-deoxy-3′(R)-(thiazol-2-yl) acetylamino spectinomycin trihydrobromide]
Rv1258c KO MIC [2]: 6.3 µg/mL
Ribosome IC50 [3]: 0.72 µg/mL
Efflux Ratio [4]: 1

Br.Br.Br.CNC1C(O)C(NC)C2OC3(O)C(NC(=O)Cc4c[nH]cn4)CC(C)OC3OC2C1O [Compound 20, 3′-Dihydro-3′-deoxy-3′(R)-(1H-imidazol-4-yl)acetylamino spectinomycin trihydrobromide]
H37Rv MIC [1]: 25 µg/mL
Rv1258c KO MIC [2]: 12.5 µg/mL
Ribosome IC50 [3]: 1.10 µg/mL
Efflux Ratio [4]: 2

Br.Br.Br.CNC1C(O)C(NC)C2OC3(O)C(NC(=O)Cn4cccn4)CC(C)OC3OC2C1O [Compound 22, 3′-Dihydro-3′-deoxy-3′(R)-(1H-pyrazol-1-yl)acetylamino spectinomycin trihydrobroride]
H37Rv MIC [1]: 6.3 µg/mL
Rv1258c KO MIC [2]: 6.3 µg/mL
Ribosome IC50 [3]: 0.42 µg/mL
Efflux Ratio [4]: 1

Br.Br.Br.CNC1C(O)C(NC)C2OC3(O)C(OC(C)C[C@H]3NC(=O)Cn3ccnc3)OC2C1O (stereo partly drawn) [Compound 23, 3′-Dihydro-3′-deoxy-3′(R)-(1H-imidazol-1-yl)acetylamino spectinomycin trihydrobromide]
H37Rv MIC [1]: 100 µg/mL
Rv1258c KO MIC [2]: 12.5 µg/mL
Ribosome IC50 [3]: 1.51 µg/mL
Fold change of MIC between H37Rv and Rv1258c KO (efflux) [4]: 8 fold
Efflux Ratio [4]: 8

Br.Br.Br.CNC1C(O)C(NC)C2OC3(O)C(NC(=O)Cc4nc5ccccc5o4)CC(C)OC3OC2C1O [Compound 24, 3′-Dihydro-3′-deoxy-3′(R)-(benzo[d]oxazol-2-yl)acetylamino spectinomycin trihydrobroride]
H37Rv MIC [1]: 6.3 µg/mL
Rv1258c KO MIC [2]: 3.1 µg/mL
Ribosome IC50 [3]: 0.61 µg/mL
Efflux Ratio [4]: 2

Br.Br.Br.CNC1C(O)C(NC)C2OC3(O)C(OC(C)C[C@H]3NC(=O)Cc3nc4ccccc4n3C)OC2C1O (stereo partly drawn) [Compound 26, 3′-Dihydro-3′-deoxy-3′(R)-(1-methyl-1H-benzo[d]imidazol-2-yl)acetylamino spectinomycin trihydrobroride]
H37Rv MIC [1]: 6.3 µg/mL
Rv1258c KO MIC [2]: 3.1 µg/mL
Ribosome IC50 [3]: 0.26 µg/mL
Efflux Ratio [4]: 2

CNC1C(O)C(NC)C2OC3(O)C(NC(=O)Cc4cc5ccccc5[nH]4)CC(C)OC3OC2C1O [Compound 28, 3′-Dihydro-3′-deoxy-3′(R)-(1H-indol-2-yl)acetylamino spectinomycin]
H37Rv MIC [1]: 25 µg/mL
Rv1258c KO MIC [2]: 0.8 µg/mL
Ribosome IC50 [3]: 0.77 µg/mL
Fold change of MIC between H37Rv and Rv1258c KO (efflux) [4]: 32 fold
Efflux Ratio [4]: 32

Br.Br.Br.CNC1C(O)C(NC)C2OC3(O)C(NC(=O)Cc4ncccc4C)CC(C)OC3OC2C1O [Compound 29, 3′-Dihydro-3′-deoxy-3′(R)-(3-methylpyridin-2-yl)acetylamino spectinomycin trihydrobromide]
H37Rv MIC [1]: 25 µg/mL
Rv1258c KO MIC [2]: 6.3 µg/mL
Ribosome IC50 [3]: 1.00 µg/mL
Efflux Ratio [4]: 4

Br.Br.Br.CNC1C(O)C(NC)C2OC3(O)C(NC(=O)Cc4cc(C)ccn4)CC(C)OC3OC2C1O [Compound 30, 3′-Dihydro-3′-deoxy-3′(R)-(4-methylpyridin-2-yl)acetylamino spectinomycin trihydrobromide]
H37Rv MIC [1]: 3.1 µg/mL
Rv1258c KO MIC [2]: 6.3 µg/mL
Ribosome IC50 [3]: 0.47 µg/mL
Efflux Ratio [4]: 0.5

Br.Br.Br.CNC1C(O)C(NC)C2OC3(O)C(NC(=O)Cc4ccc(C)cn4)CC(C)OC3OC2C1O [Compound 31, 3′-Dihydro-3′-deoxy-3′(R)-(5-methylpyridin-2-yl)acetylamino spectinomycin trihydrobromide]
H37Rv MIC [1]: 3.1 µg/mL
Rv1258c KO MIC [2]: 3.1 µg/mL
Ribosome IC50 [3]: 0.54 µg/mL

Br.Br.Br.CNC1C(O)C(NC)C2OC3(O)C(NC(=O)Cc4ccc(N)cn4)CC(C)OC3OC2C1O [Compound 37, 3′-Dihydro-3′-deoxy-3′(R)-(5-aminopyridin-2-yl)acetylamino spectinomycin trihydrobromide]
H37Rv MIC [1]: 6.3 µg/mL
Rv1258c KO MIC [2]: 6.3 µg/mL
Ribosome IC50 [3]: 0.30 µg/mL

CNC1C(O)C(NC)C2OC3(O)C(OC(C)C[C@H]3NC(=O)Cc3ccc(OC(F)F)cn3)OC2C1O.Cl.Cl.Cl (stereo partly drawn) [Compound 40, 3′-Dihydro-3′-deoxy-3′(R)-(5-(difluoromethoxy)pyridin-2-yl)acetylamino spectinomycin trihydrochloride]
Efflux Ratio [4]: 2
